Assay [1] relates to BT 474 human breast cancer cell line. The assay can be described thus: BT 474 cell growth in zymosan-activated human serum (MTT cell viability). The format is cell-based. The following applies: BT 474 cells, 15% human serum, n=4, read-out: IC50, inhibition of BT 474 cell growth induced by zymosan-activated human serum complement. The method, then: (§1) Experiment 1 was designed to determine the effect of ATA, AHA, AQA and ATAC on U251 cell growth in the presence of complement activated human serum. In Experiment 1(a), U251 cells were treated with various concentrations of human serum (1, 5, 7.5, 10, 12.5, 15%) in DMEM and incubated with 1 μg/mL zymosan at 37° C. for 72 h. Control U251 cells (CON) were incubated in fresh DMEM only. As a further control U251 cells were treated with 10% human serum heated at 56° C. for 30 min to heat inactivate complement (HIS) before incubation with 1 μg/ml zymosan. In Experiment 1(b), U251 cells were treated with various concentrations of ATAC, ATA, AQA and AHA (0.1, 1, 5, 10, 30, 50 μM) in DMEM with 15% human serum and incubated with 1 μg/mL zymosan at 37 ° C. for 72 h. In both Experiments 1(a) and 1(b), following incubation, cell viability was evaluated by MTT (3-[4,5-dimethylthiazol-2-yl]-2,5 diphenyl tetrazolium bromide) assays by adding MTT to the cell cultures to reach a final concentration of 1 mg/mL. Following a 1 h incubation at 37° C., the dark crystals formed were dissolved by adding a SDS/DMF extraction buffer (300 μL, 20% sodium dodecyl sulfate, 50% N,N-dimethylformamide, pH 4.7). Plates were subsequently incubated overnight at 37° C. and optical densities at 570 nm were measured by transferring 100 μL aliquots to 96-well plates and using a plate reader with a corresponding filter.
Experiment 13 was designed to determine the effect of ATA, AQA, AHA and ATAC on BT 474 cell growth. The protocol was identical to that used in Experiment 1(b) except BT 474 cells were used.

Assay [2] relates to A549 human lung cancer cell line. Description: A549 cell growth in zymosan-activated human serum (MTT cell viability). The format is cell-based. As to conditions: A549 cells, 15% human serum, n=4, read-out: IC50, inhibition of A549 cell growth induced by zymosan-activated human serum complement. The method, then:
as §1
Experiment 5 was designed to determine the effect of ATA, AHA, AQA and ATAC on BxPC-3 cell growth in the presence of complement activated human serum.
Experiment 9 was designed to determine the effect of ATA, AQA, AHA and ATAC on A549 cell growth. The protocol was identical to that used in Experiment 5(b) except A549 cells were used.

Assay [3] concerns human bone osteosarcoma MNNG cells. The assay can be described thus: Lactic dehydrogenase release from MNNG cells. The format is cell-based. The following applies: n=4, read-out: IC50, lactate dehydrogenase release from MNNG cells. The method, then: (§2) Experiment 4 was designed to confirm apoptotic cell death of U251 cells induced by ATA, AQA, AHA, and ATAC by measuring release of lactic dehydrogenase into the cell medium. For serum lactate dehydrogenase determination, reaction supernatants ([…]) were pipetted into the wells of 96-well plates, followed by the addition of […] lactate solution (36 mg/mL in PBS) and […] INT (iodonitrotetrazolium chloride, 2-(4-iodophenyl)-3-(4-nitrophenyl)-5-phenyl-2H-tetrazolium chloride) solution (2 mg/mL in PBS). The enzymatic reaction was started by addition of […] of NAD^+/diaphorase solution (3 mg/mL NAD^+; 2.3 mg solid/mL diaphorase). After 1 h, optical densities were measured with a microplate reader using a 490 nm filter. The amount of LDH released was expressed as a percentage of the value obtained in comparative cells where cells were 100% lysed by 1% Triton X-100.
Experiment 22 was designed to determine if apoptotic death of human bone osteosarcoma MNNG cells was induced by ATA, AQA, AHA, and ATAC as determined by the release of lactic dehydrogenase into the cell medium. The protocol was identical to that used in Experiment 19(d) except that human bone osteosarcoma MNNG cells were used.

The test system of assay [4] is K562 human chronic myelogenous leukemia cells. The assay can be described thus: Lactic dehydrogenase release from K562 cells. It counts as cell-based. The following applies: n=4, read-out: IC50, lactate dehydrogenase release from K562 cells. The method, then: as §2
Experiment 18 was designed to determine if apoptotic cell death of K562 human chronic myelogenous leukemia cells was induced by ATA, AQA, AHA, and ATAC as determined by the release of lactic dehydrogenase into the cell medium. The protocol was identical to that used in Experiment 16(b) except that K562 human chronic myelogenous leukemia cells were used.

The test system of assay [5] is K562 human chronic myelogenous leukemia cell line. Description: K562 cell growth in zymosan-activated human serum (MTT cell viability). The format is cell-based. As for the experimental part: as §1
Experiment 17 was designed to determine the effect of ATA, AQA, AHA and ATAC on K562 human chronic myelogenous leukemia cell growth. The protocol was identical to that used in Experiment 15(b) except that K562 human chronic myelogenous were utilized and the growth medium was Iscove's.

The next assay deals with A549 cells. Description: Lactic dehydrogenase release from A549 cells. It counts as cell-based, human. As to conditions: n=4, read-out: IC50, lactate dehydrogenase release from A549 cells. As for the experimental part:
as §2
Experiment 8 was designed to confirm apoptotic cell death of BxPC-3 cells induced by ATA, AQA, AHA, and ATAC by the release of lactic dehydrogenase into the cell medium.
Experiment 12 was designed to confirm apoptotic cell death of A549 cells induced by ATA, AQA, AHA, and ATAC by the release of lactic dehydrogenase into the cell medium. The protocol was identical to that used in Experiment 8 except A549 cells were used.

Assay [6] deals with DOHH2 human B-cell carcinoma cells. The assay can be described thus: Lactic dehydrogenase release from DOHH2 cells. The format is cell-based. The method, then:
as §2
Experiment 16 was designed to determine if apoptotic cell death of DOHH2 human B-cell carcinoma cells was induced by ATA, AQA, AHA, and ATAC as determined by the release of lactic dehydrogenase into the cell medium. The protocol was identical to that used in Experiment 9(d) except that DOHH2 human B-cell carcinoma cells were used.

The test system of assay [7] is DOHH2 human B-cell carcinoma cell line. The assay can be described thus: DOHH2 cell growth in zymosan-activated human serum (MTT cell viability). As to conditions: 15% human serum, n=4, read-out: IC50, inhibition of DOHH2 cell growth induced by zymosan-activated human serum complement. It counts as cell-based. The method, then: as §1
Experiment 15 was designed to determine the effect of ATA, AQA, 15 AHA and ATAC on DOHH2 human B-cell carcinoma cell growth. The protocol was identical to that used in Experiment 9(b) except DOHH2 human B-cell carcinoma cells were used.

Another assay deals with U251 cells. Description: Lactic dehydrogenase release from U251 cells. The format is cell-based, human. As to conditions: n=4, read-out: IC50, lactate dehydrogenase release from U251 cells. As for the experimental part:
as §2

Setting [8] is: K562 cells, Iscove's medium, 15% human serum, zymosan, MTT, n=4, read-out: IC50, inhibition of K562 cell growth induced by zymosan-activated human serum complement.
Where [9] appears, read: n=4, read-out: IC50, lactate dehydrogenase release from DOHH2 cells.

Read-outs that look alike come from different tables or passages of the source.

By IC50 is commonly meant the concentration that gives 50% inhibition. Consider `O=C(O)C1=CC(=C(c2ccc(O)c(C(=O)O)c2)c2ccc(O)c(C(=O)O)c2)C=CC1=O` [ATA, aurin tricarboxylic acid], for which the IC50 in [1] worked out at 5.9 µM; in assay [2], 7.2 µM; in assay [3] (Homo sapiens), 6.5 µM; in assay [4] (Homo sapiens), 4.7 µM; in assay [5] (Homo sapiens, K562, read-out: IC50, inhibition of K562 cell growth induced by zymosan-activated human serum complement), 4.5 µM; with A549 cells (Homo sapiens) it was 7.5 µM. The IC50 came out at 4.9 µM in [6] (Homo sapiens, DOHH-2, n=4, read-out: IC50, lactate dehydrogenase release from DOHH2 cells); 5.1 µM in assay [7] (DOHH-2, DOHH2 cells); 7.6 µM in the assay with U251 cells (Homo sapiens, U-251, LDH as % of Triton X-100 lysis).

aurin hexacarboxylic acid [AHA]: the 50% inhibitory concentration (IC50) in assay [1] turned out to be 5.8 µM; in assay [2], 7.5 µM; in assay [3], 6.6 µM; in [4], 4.6 µM; in assay [5] (setting [8]), 4.6 µM; in the assay on A549 cells, 7.6 µM. Also, the IC50 in assay [6] (setting [9]) was found to be 5.1 µM; in assay [7] (DOHH2 cells) it was 4.9 µM; in the assay with U251 cells (LDH as % of Triton X-100 lysis), 7.7 µM.

For the compound aurin quadracarboxylic acid [AQA], the IC50 in assay [1] worked out at 6 µM; in assay [2], 7.4 µM; in assay [3], 6.4 µM; in [4], 4.6 µM; in assay [5] (setting [8]), 4.7 µM; in the assay on A549 cells it was 7.4 µM. The results for the IC50 (in assay [6] (setting [9]); in assay [7] (DOHH2 cells); in the assay on U251 cells (LDH as % of Triton X-100 lysis)) were 5 µM, 5 µM and 7.4 µM, respectively.

Source of the values: patent publication US10653651B2, “Kit for treating cancer with low molecular weight components of aurin tricarboxylic acid complex” (Aurin Biotech Inc., priority 2014, dated 2020).
